# Measured values taken from US9464084B2, “P2X7 modulators” (Janssen Pharmaceutica NV, priority 2013, dated 2016).
# Target: P2X7 (Homo sapiens (Human), UniProt Q99572)
# Assay: P2X7 antagonism in human PBMCs (LPS + Bz-ATP induced IL-1β release, ELISA);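 also: PBMCs from donor human blood, with a further 1.5 h incubation of the cells in the assay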
# Assay type: cell-based
# Conditions: compound 10 μM, LPS 30 ng/ml, Bz-ATP 0.5 mM
# P2X7, sequence (Q99572 whole entry): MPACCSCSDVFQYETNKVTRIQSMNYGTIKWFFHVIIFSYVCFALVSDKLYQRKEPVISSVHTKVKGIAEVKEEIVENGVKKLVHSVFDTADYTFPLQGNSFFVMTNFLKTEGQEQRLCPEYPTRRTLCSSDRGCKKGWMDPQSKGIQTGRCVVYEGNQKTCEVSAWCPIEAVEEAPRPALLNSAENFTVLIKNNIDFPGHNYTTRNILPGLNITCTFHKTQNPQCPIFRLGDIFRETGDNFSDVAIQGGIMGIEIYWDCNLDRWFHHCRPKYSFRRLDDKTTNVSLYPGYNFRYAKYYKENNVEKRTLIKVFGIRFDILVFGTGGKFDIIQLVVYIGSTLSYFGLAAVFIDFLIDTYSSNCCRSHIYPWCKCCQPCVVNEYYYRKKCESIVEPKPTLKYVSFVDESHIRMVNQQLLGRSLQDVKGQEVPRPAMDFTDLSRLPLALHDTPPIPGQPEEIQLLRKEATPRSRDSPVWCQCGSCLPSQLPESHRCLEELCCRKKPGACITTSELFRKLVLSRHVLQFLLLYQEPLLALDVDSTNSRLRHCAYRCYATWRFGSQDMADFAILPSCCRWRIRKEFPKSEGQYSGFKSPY
row,SMILES,PBMC 10 μM (% control)
1,"C[C@H]1Cc2c(nnn2-c2ccccn2)CN1C(=O)c1cccc(C(F)(F)F)c1Cl (single isomer, unassigned) [Example 118, 5-{[2-Chloro-3-(trifluoromethyl)phenyl]carbonyl}-(S*)-6-methyl-1-pyridin-2-yl-4,5,6,7-tetrahydro-1H-[1,2,3]triazolo[4,5-c]pyridine]",12.6
2,"C[C@@H]1Cc2c(nnn2-c2ccccn2)CN1C(=O)c1cccc(C(F)(F)F)c1Cl (single isomer, unassigned) [Example 119, 5-{[2-Chloro-3-(trifluoromethyl)phenyl]carbonyl}-(R*)-6-methyl-1-pyridin-2-yl-4,5,6,7-tetrahydro-1H-[1,2,3]triazolo[4,5-c]pyridine]",20.0
3,"C[C@@H]1c2nnn(-c3cc[nH]n3)c2CCN1C(=O)c1cccc(C(F)(F)F)c1Cl (single isomer, unassigned) [Example 133, (R*)-(2-Chloro-3-(trifluoromethyl)phenyl)(4-methyl-1-(1H-pyrazol-5-yl)-6,7-dihydro-1H-[1,2,3]triazolo[4,5-c]pyridin-5(4H)-yl)methanone]",−0.2
4,"C[C@H]1c2nnn(-c3ccn[nH]3)c2CCN1C(=O)c1cccc(C(F)(F)F)c1Cl (single isomer, unassigned) [Example 134, (S*)-(2-Chloro-3-(trifluoromethyl)phenyl)(4-methyl-1-(1H-pyrazol-5-yl)-6,7-dihydro-1H-[1,2,3]triazolo[4,5-c]pyridin-5(4H)-yl)methanone]",12.3
5,"C[C@@H]1c2nnn(-c3cnccn3)c2CCN1C(=O)c1ccc(F)c(Cl)c1Cl (single isomer, unassigned) [Example 143, (R*)-(2,3-Dichloro-4-fluorophenyl)(4-methyl-1-(pyrazin-2-yl)-6,7-dihydro-1H-[1,2,3]triazolo[4,5-c]pyridin-5(4H)-yl)methanone]",58.0
6,"C[C@H]1c2nnn(-c3cnccn3)c2CCN1C(=O)c1ccc(F)c(Cl)c1Cl (single isomer, unassigned) [Example 144, (S*)-(2,3-Dichloro-4-fluorophenyl)(4-methyl-1-(pyrazin-2-yl)-6,7-dihydro-1H-[1,2,3]triazolo[4,5-c]pyridin-5(4H)-yl)methanone]",19.6
7,"C[C@@H]1c2nnn(-c3cc(F)ccn3)c2CCN1C(=O)c1cccc(C(F)(F)F)c1Cl (single isomer, unassigned) [Example 148, (R*)-(2-Chloro-3-(trifluoromethyl)phenyl)(1-(4-fluoropyridin-2-yl)-4-methyl-6,7-dihydro-1H-[1,2,3]triazolo[4,5-c]pyridin-5(4H)-yl)methanone]",−9.6
8,"C[C@H]1c2nnn(-c3cc(F)ccn3)c2CCN1C(=O)c1cccc(C(F)(F)F)c1Cl (single isomer, unassigned) [Example 149, (S*)-(2-Chloro-3-(trifluoromethyl)phenyl)(1-(4-fluoropyridin-2-yl)-4-methyl-6,7-dihydro-1H-[1,2,3]triazolo[4,5-c]pyridin-5(4H)-yl)methanone]",3.5
9,"COc1ccnc(-n2nnc3c2CCN(C(=O)c2cccc(C(F)(F)F)c2Cl)[C@H]3C)c1 (single isomer, unassigned) [Example 151, (R*)-(2-Chloro-3-(trifluoromethyl)phenyl)(1-(4-methoxypyridin-2-yl)-4-methyl-6,7-dihydro-1H-[1,2,3]triazolo[4,5-c]pyridin-5(4H)-yl)methanone]",19.5
10,"COc1ccnc(-n2nnc3c2CCN(C(=O)c2cccc(C(F)(F)F)c2Cl)[C@@H]3C)c1 (single isomer, unassigned) [Example 152, (S*)-(2-Chloro-3-(trifluoromethyl)phenyl)(1-(4-methoxypyridin-2-yl)-4-methyl-6,7-dihydro-1H-[1,2,3]triazolo[4,5-c]pyridin-5(4H)-yl)methanone]",15.4
11,"C[C@H]1c2nnn(-c3ncc(F)cn3)c2CCN1C(=O)c1cccc(C(F)(F)F)c1Cl (single isomer, unassigned) [Example 157, (S*)-(2-Chloro-3-(trifluoromethyl)phenyl)(1-(5-fluoropyrimidin-2-yl)-4-methyl-6,7-dihydro-1H-[1,2,3]triazolo[4,5-c]pyridin-5(4H)-yl)methanone]",−1.4
12,"C[C@@H]1c2nnn(-c3ncc(F)cn3)c2CCN1C(=O)c1cccc(C(F)(F)F)c1Cl (single isomer, unassigned) [Example 158, (R*)-(2-Chloro-3-(trifluoromethyl)phenyl)(1-(5-fluoropyrimidin-2-yl)-4-methyl-6,7-dihydro-1H-[1,2,3]triazolo[4,5-c]pyridin-5(4H)-yl)methanone]",1.1
13,"C[C@H]1c2nnn(-c3ncc(F)cn3)c2CCN1C(=O)c1ccnc(C(F)(F)F)c1Cl (single isomer, unassigned) [Example 164, (S*)-(3-chloro-2-(trifluoromethyl)pyridin-4-yl)(1-(5-fluoropyrimidin-2-yl)-4-methyl-6,7-dihydro-1H-[1,2,3]triazolo[4,5-c]pyridin-5(4H)-yl)methanone]",98.1
14,"C[C@@H]1Cc2c(nnn2-c2ncccc2F)CN1C(=O)c1cccc(Cl)c1Cl (single isomer, unassigned) [Example 165, (6R*)-5-[(2,3-Dichlorophenyl)carbonyl]-1-(3-fluoropyridin-2-yl)-6-methyl-4,5,6,7-tetrahydro-1H-[1,2,3]triazolo[4,5-c]pyridine]",60.7
15,"C[C@H]1Cc2c(nnn2-c2ncccc2F)CN1C(=O)c1cccc(Cl)c1Cl (single isomer, unassigned) [Example 166, (6S*)-5-[(2,3-Dichlorophenyl)carbonyl]-1-(3-fluoropyridin-2-yl)-6-methyl-4,5,6,7-tetrahydro-1H-[1,2,3]triazolo[4,5-c]pyridine]",0.6
16,"C[C@@H]1Cc2c(nnn2-c2ncccc2F)CN1C(=O)c1cccc(C(F)(F)F)c1Cl (single isomer, unassigned) [Example 167, (6R*)-5-{[2-Chloro-3-(trifluoromethyl)phenyl]carbonyl}-1-(3-fluoropyridin-2-yl)-6-methyl-4,5,6,7-tetrahydro-1H-[1,2,3]triazolo[4,5-c]pyridine]",4.2
17,"C[C@H]1Cc2c(nnn2-c2ncccc2F)CN1C(=O)c1cccc(C(F)(F)F)c1Cl (single isomer, unassigned) [Example 168, (6S*)-5-{[2-Chloro-3-(trifluoromethyl)phenyl]carbonyl}-1-(3-fluoropyridin-2-yl)-6-methyl-4,5,6,7-tetrahydro-1H-[1,2,3]triazolo[4,5-c]pyridine]",−4.2
18,"C[C@@H]1c2nnn(-c3ccn(C)n3)c2CCN1C(=O)c1cccc(C(F)(F)F)c1Cl (single isomer, unassigned) [Example 169, (R*)-(2-Chloro-3-(trifluoromethyl)phenyl)(4-methyl-1-(1-methyl-1H-pyrazol-3-yl)-6,7-dihydro-1H-[1,2,3]triazolo[4,5-c]pyridin-5(4H)-yl)methanone]",95.0
19,"C[C@H]1c2nnn(-c3ncc(F)cn3)c2CCN1C(=O)c1cccc(C(F)(F)F)c1F (single isomer, unassigned) [Example 178, (S*)-(2-fluoro-3-(trifluoromethyl)phenyl)(1-(5-fluoropyrimidin-2-yl)-4-methyl-6,7-dihydro-1H-[1,2,3]triazolo[4,5-c]pyridin-5(4H)-yl)methanone]",−4.7
20,"Cc1cc(C)nc(-n2nnc3c2CCN(C(=O)c2cccc(C(F)(F)F)c2Cl)[C@H]3C)n1 (single isomer, unassigned) [Example 182, (S*)-(2-chloro-3-(trifluoromethyl)phenyl)(1-(4,6-dimethylpyrimidin-2-yl)-4-methyl-6,7-dihydro-1H-[1,2,3]triazolo[4,5-c]pyridin-5(4H)-yl)methanone]",62.5
21,"C[C@H]1Cc2c(nnn2-c2ncc(F)cn2)CN1C(=O)c1ccnc(C(F)(F)F)c1Cl (single isomer, unassigned) [Example 183, (R*)-(3-chloro-2-(trifluoromethyl)pyridin-4-yl)(1-(5-fluoropyrimidin-2-yl)-6-methyl-6,7-dihydro-1H-[1,2,3]triazolo[4,5-c]pyridin-5(4H)-yl)methanone]",−1.2
22,"Cc1ccnc(-n2nnc3c2CCN(C(=O)c2cccc(C(F)(F)F)c2Cl)[C@@H]3C)c1 (single isomer, unassigned) [Example 185, (R*)-(2-chloro-3-(trifluoromethyl)phenyl)(4-methyl-1-(4-methylpyridin-2-yl)-6,7-dihydro-1H-[1,2,3]triazolo[4,5-c]pyridin-5(4H)-yl)methanone]",−3.7
23,"Cc1ccnc(-n2nnc3c2CCN(C(=O)c2cccc(C(F)(F)F)c2Cl)[C@H]3C)c1 (single isomer, unassigned) [Example 186, (S*)-(2-chloro-3-(trifluoromethyl)phenyl)(4-methyl-1-(4-methylpyridin-2-yl)-6,7-dihydro-1H-[1,2,3]triazolo[4,5-c]pyridin-5(4H)-yl)methanone]",−0.5
24,"Cc1c(C(=O)N2Cc3nnn(-c4ncc(F)cn4)c3C[C@H]2C)ccnc1C(F)(F)F (single isomer, unassigned) [Example 187, (S*)-(1-(5-fluoropyrimidin-2-yl)-6-methyl-6,7-dihydro-1H-[1,2,3]triazolo[4,5-c]pyridin-5(4H)-yl)(3-methyl-2-(trifluoromethyl)pyridin-4-yl)methanone]",−0.6
25,"Cc1c(C(=O)N2CCc3c(nnn3-c3ncccn3)[C@H]2C)cccc1C(F)(F)F (single isomer, unassigned) [Example 188, (R*)-(4-methyl-1-(pyrimidin-2-yl)-6,7-dihydro-1H-[1,2,3]triazolo[4,5-c]pyridin-5(4H)-yl)(2-methyl-3-(trifluoromethyl)phenyl)methanone]",−0.7
